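Method: 48-hour compound exposure of cells in 96-well plates, five concentrations, linear interpolation of endpoints. At the TGI there is no net growth.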

Holding throughout (assay): NCI anticancer screen, dose series, 48 h
The subject of experiment [1] is CAKI-1 renal.
Experiment [2] deals with A549 NSCLC.
Experiment [3] concerns SF-295 CNS.
Experiment [4] relates to MALME-3M melanoma.
Experiment [5] concerns U251 CNS.
Experiment [6] deals with NCI-H522 lung.
In experiment [7] the test system is HOP-92 NSCLC.
The subject of experiment [8] is SK-MEL-5 melanoma.
The subject of experiment [9] is MOLT-4 leukemia.
Experiment [10] concerns SNB-19 CNS.

With `COC(=O)c1c(C#N)c(N)nc2c1CCC2`, the TGI in [1], in [2], in experiment [3], in [4], in experiment [5] and in experiment [6] was over 100 µM throughout. Further, the TGI in [7], in [8], in experiment [9] and in [10] was over 100 µM in each case.

Turning to `CCOC(=O)C(NC(=O)c1ccccc1)(N1CCN(c2cc3c(cc2F)c(=O)c(C(=O)O)cn3CC)CC1)C(F)(F)F` (stereo not given), the TGI in [1] is 48.4 µM; in experiment [2], over 100 µM; in experiment [3], over 100 µM; in experiment [4], 90.1 µM; in experiment [5], over 100 µM; in [6], 32.4 µM. The TGI in experiment [7] is 84.4 µM; in [8] it was 65.7 µM; in [9], 54.2 µM; in [10], over 100 µM.

Take `CCCCCCCCCCCC[C@@H](O)[C@H]1CCC([C@H](O)CCCCC(=O)CCCCCCCC2=C[C@H](C)OC2=O)O1` (stereo not given in full): the TGI in experiment [1], in experiment [2], in experiment [3], in experiment [4], in experiment [5] and in experiment [6] was over 50 µM each time. Also, the TGI is over 50 µM in experiment [7], over 20.2 µM in experiment [8], over 50 µM in experiment [9] and over 50 µM in [10].

In the case of `CCOC(=O)NC(OC)(C(F)(F)F)C(F)(F)F`, the TGI in experiment [1], in experiment [2], in experiment [3], in experiment [4], in [5] and in [6] was over 100 µM each time. For the same compound, the TGI in experiment [7], in [8], in experiment [9] and in [10] was over 100 µM each time.

With `Cc1nc(C)c(N2CCNCC2)c(=O)[nH]1`, the TGI in [1], in experiment [2], in experiment [3], in experiment [4], in experiment [5] and in experiment [6] was over 100 µM each time. In addition, the TGI in experiment [7], in experiment [8], in experiment [9] and in experiment [10] was over 100 µM throughout.

Regarding `O=c1[nH]cc(Cl)c(=O)[nH]1`, the TGI in experiment [1], in [2], in experiment [3], in experiment [4], in [5] and in experiment [6] was over 100 µM each time. Further, the TGI in [7], in [8], in experiment [9] and in experiment [10] was over 100 µM throughout.

The record behind these values is PubChem BioAssay (NCI).
